Source: patent US20100240754A1, “UNSATURATED FATTY AMINO ACID DERIVATIVES AND USE THEREOF IN DERMAL COSMETOLOGY” (Pierre Fabre Demo-Cosmetique, priority 2007, published 2010)
Like-named read-outs stand apart in the source and are kept apart here.

Key:
production of IL8 [1] = assay: Production of interleukin 8 induced in keratinocytes by PMA and calcium ionophore A23187 (ELISA); assay type: cell-based; details: for Inhibitory activity % of molecules evaluated on the production of IL8 / inhibition at 3 µg/mL: 3 μg/mL, keratinocytes, 60 min pre-incubation, PMA 1 μM + A23187 0.1 μM, 6 hours, percentage of activity/stimulated control; for inhibition at 3 µg/mL: Keratinocyte, read-out: Inhibitory activity % of molecules evaluated on the production of IL8; for anti-inflammatory potentialities (IL8 production), in words: summary of Table 2 data
Protocol: In this study conducted on 96-well plates, we evaluated the activity of amino-alkene acids, on the production of interleukin 8 induced at the keratinocyte by the phorbol ester PMA and the calcium ionophore A23187.
The suspension of keratinocytes in supplemented KSFM is distributed into plates of 96 wells (3.10^4 cells/well), and incubated for 16 hours at 37° C. in an atmosphere with 5% CO2. The keratinocytes are then rinsed with PBS in order to remove the non-adherent cells and then exposed to the products to be tested included in non-supplemented KSFM (which might interfere in the assay).
The tested culture concentration is 3 μg/mL. It was retained after a preliminary test for evaluating cytotoxicity (neutral red) and it is not cytotoxic.
For each treatment, 3 wells are produced. The cells are pre-incubated for 60 min with the products to be tested and then stimulated, in parallel with negative controls without any stimulant: Phorbol Myristate Acetate (PMA) 1 μM+calcium Ionophore (A23187) 0.1 μM.
Incubation for 6 hours at 37° C. in a humid air atmosphere containing 5% of CO2.
The culture media of each of the wells are recovered, centrifuged at 3,000 rpm and stored at −80° C.
Assay of the cytokines: IL8 is assayed by an immunoenzymatic method with an ELISA kit (Immunotech).
The results are gathered in Table 2 and are expressed in percentage of activity/stimulated control.

[2] = system: fibroblast cell line L929; assay: In vitro assay of intracellular OASes (H2DCF-DA probe) after H2O2/iron oxidative stress; assay type: cell-based, murine; details: Mus musculus, L929, 3 h pretreatment, H2O2 200 μM / iron 2 mM, read-out: percentage of inhibition of intracellular OAS production (protection); for inhibition at 20 pg/mL: dose 0.02 ng/mL; for inhibition at 0.0002 µg/mL: dose 0.2 ng/mL; for inhibition at 0.002 µg/mL: dose 2 ng/mL; for inhibition at 0.02 µg/mL: dose 20 ng/mL
Excerpt: We have set up a model for an in vitro study of oxidative stress induced by H2O2/iron, H2O2 which massively generates intracellular OASes by a chain reaction triggered by the oxidation of membrane lipids.
This technique is based on the use of a fluorescent probe, 6-carboxy-2′, 7′ dichlorodihydrofluorescein diacetate, di(acetoxymethyl ester) (H2DCF-DA), which, once it has penetrated the cell, is deacetylated by the intracellular esterases then forming H2DCF. This product is oxidized by intracellular OASes into a highly fluorescent compound: 2′,7′-dichlorofluorescein, (DCF) (Suematsu M et al, 1996, Free Radicals Practical Approach, Punchard ed. P83-99).
Cutaneous murine fibroblast cell line L929.
The tested concentrations are non-cytotoxic concentrations. Cytoxicity was evaluated by the neutral red method, after incubation of the product for 3 hours.
The reference anti-radical product is vitamin E or α-tocopherol (MW: 430.7) (SIGMA, ref.: T-1539).
The mother solution is prepared at 400 mg/mL in DMSO and stored at −20° C. The pretreatment solution is prepared extemporaneously at 400 μg/mL in a culture medium without FCS.
For evaluating unsaturated fatty amino acid derivatives, the dilutions are prepared in the culture medium extemporaneously for a range of concentrations of 0.02, 0.2, 2 and 20 ng/mL.
The cells of the fibroblast line L929 are sown in microplates with 96 wells with a flat bottom in 100 μL of DMEM supplemented with 10% of FCS, and they are then incubated overnight at 37° C. in a humid atmosphere with 5% CO2.
The dilutions of the products to be tested and of the reference molecule are conducted in culture mediums without FCS, and then deposited in 7 wells in an amount of 100 μL per well.
The cells are then incubated for 3 hours at 37° C. in a humid atmosphere with 5% CO2.
The cells are rinsed with PBS 1× in an amount of 100 μL per well. Next they are set to incubate for 30 min at 37° C. in a humid atmosphere with 5% CO2 and with 50 μL of H2DCF-DA probe at 5 μM.
After 30 min in contact with the probe alone, the cells are incubated for 30 min at 37° C. in a humid atmosphere with […] with addition of 25 μL of H2O2 at 800 μM and 25 μL of 8 mM ferrous and ferric iron solution, in order to have final concentrations of 200 μM of H2O2 and 2 mM of ferrous and ferric iron.
The cells are then rinsed with PBS 1× in an amount of 100 μL per well, and then incubated for 30 min at 37° C. in a humid atmosphere with 5% CO2 and with 100 μL of PBS 1×.
These 1 h 30 minutes of incubation at 37° C. allow the intracellular esterases to deacetylate the H2DCF probe, oxidizable by intracellular OASes into DCF; a fluorescent compound, the formation of which is proportional to the amount of intracellular OASes.
The fluorescence intensity is read with the cytofluorimeter at λexcitation=485 nm and λemission=530 nm. It reflects the amount of produced intracellular OASes.
With the below ratio, it is possible to calculate for each concentration of tested product the % of protection against production of intracellular OASes (since the fluorescence intensity or FI expresses intracellular release of OASes).
The values indicated in Table 3 are percentages of inhibition of intracellular OAS production following an exogenous oxidative stress, relatively to <> cells (100%) and to <> cells (0%).

B16-F10 line = assay: Synthesis of melanin, colorimetric assay, basal and after alpha MSH stimulation; assay type: cell-based, murine; details: B16-F10; for inhibition at 30 µg/mL: Mus musculus, 30 μg/mL
Protocol: 6.1) The modulating effect of unsaturated fatty amino-acid derivatives on melanogenesis was analyzed. For this, a measurement of the synthesis of melanin by a colorimetric assay is carried out on a cell line of murine melanomas: the B16-F10 line.
The effect of the products is investigated in a basal situation and after stimulating melanogenesis by a MSH for determining the depigmenting power.
The level of extracellular and intracellular melanin is then measured by spectrophotometry at a wave length of 405 nm according to the procedure (Meun, Y. J. et al.). The amount of pigment is determined by a standard range of melanin and by analysis on the Microwin software package (Berthold Biotechnologies). An assay of total proteins is conducted for samples of intracellular melanin by the BCA-Copper method at 540 nm. The standard range is produced with a standard protein, BSA (Bovine Albumin Serum).

production of IL8 [3] = assay: Production of interleukin 8 induced in keratinocytes by PMA and calcium ionophore A23187 (ELISA); assay type: cell-based; details: Keratinocyte; keratinocytes stimulated with PMA + A23187; read-out: effective dose 50 (DE50), production of IL8

In the case of `Cl.NCCC/C=C/C(=O)O` [Compound No. 1, (E)-6-amino-hex-2-enoic acid], the “Inhibitory activity % of molecules evaluated on the production of IL8” value (shortened to “Inhibitory activity %”) (production of IL8 [1]) is reported as “~”, the inhibition at 20 pg/mL [2] is reported as 12% and the inhibition at 0.0002 µg/mL [2] is reported as 13%. It also gave an inhibition at 0.002 µg/mL [2] of 5% and an inhibition at 0.02 µg/mL [2] of 1%.

In the case of `NCCC/C=C(/F)C(=O)O` [Compound No. 2, (E)-6-amino-2-fluoro-hex-2-enoic acid], the “Inhibitory activity %” value (production of IL8 [1]) is reported as “~”, the inhibition at 20 pg/mL [2] is reported as 14% and the inhibition at 0.0002 µg/mL [2] is reported as 19%. The inhibition at 0.002 µg/mL [2] was 14% and the inhibition at 0.02 µg/mL [2] was -13%.

With `Cl.NCCCC/C=C/C(=O)O` [Compound No. 4, (E)-7-amino-hept-2-enoic acid] the “Inhibitory activity %” value (production of IL8 [1]) was “~”, the inhibition at 20 pg/mL [2] was 13% and the inhibition at 0.0002 µg/mL [2] was 12%. For the same compound, the inhibition at 0.002 µg/mL [2] was 8% and the inhibition at 0.02 µg/mL [2] was -14%.

For `NCCCCC=C(F)C(=O)O` [Compound No. 5, (Z+E)-7-amino-2-fluoro-hept-2-enoic acid], the inhibition at 3 µg/mL (production of IL8 [1]) was < 0%, the inhibition at 20 pg/mL [2] was 18% and the inhibition at 0.0002 µg/mL [2] was 23%. For the same compound, the inhibition at 0.002 µg/mL [2] was 26%, the inhibition at 0.02 µg/mL [2] was 23% and the “pigmenting effect, in words” value (B16-F10 line) was “weaker than that of molecule No. 6”.

In the case of `Cl.NCCCCC/C=C/C(=O)O` [Compound No. 7, (E)-8-amino-oct-2-enoic acid], the “Inhibitory activity %” value (production of IL8 [1]) is reported as “~”, the inhibition at 20 pg/mL [2] is reported as 31% and the inhibition at 0.0002 µg/mL [2] is reported as 33%. For the same compound, the inhibition at 0.002 µg/mL [2] was 26% and the inhibition at 0.02 µg/mL [2] was 32%.

For `Cl.NCCCCCC/C=C/C(=O)O` [Compound No. 8, (E)-9-amino-non-2-enoic acid], the inhibition at 3 µg/mL (production of IL8 [1]) was 14%, the inhibition at 20 pg/mL [2] was 22% and the inhibition at 0.0002 µg/mL [2] was 25%. It also gave an inhibition at 0.002 µg/mL [2] of 20%, an inhibition at 0.02 µg/mL [2] of 19% and a melting point of 104 °C.

For `Cl.NCCCCCCC=C(F)C(=O)O` [Compound No. 9, 9-amino-2-fluoro-non-2-enoic acid], the inhibition at 3 µg/mL (production of IL8 [1]) was 20%, the “anti-inflammatory potentialities (IL8 production), in words” value (production of IL8 [1]) was “anti-inflammatory potentialities” and the inhibition at 20 pg/mL [2] was 18%. It also gave an inhibition at 0.0002 µg/mL [2] of 20%, an inhibition at 0.002 µg/mL [2] of 23% and an inhibition at 0.02 µg/mL [2] of 18%. It also gave a melting point of 120 °C.

In the case of `Cl.NCCCCCCCCCCCC=C(F)C(=O)O` [Compound No. 10, 14-amino-2-fluoro-tetradec-2-enoic acid], the inhibition at 3 µg/mL (production of IL8 [1]) is reported as 8%, the inhibition at 20 pg/mL [2] is reported as 20% and the inhibition at 0.0002 µg/mL [2] is reported as 25%. It also gave an inhibition at 0.002 µg/mL [2] of 18%, an inhibition at 0.02 µg/mL [2] of 15% and a melting point of 148.5 °C.

For `Cl.NCCCCCCCCCCC/C=C/C(=O)O` [Compound No. 11, (E)-14-amino-tetradec-2-enoic acid], the inhibition at 3 µg/mL (production of IL8 [1]) was 22%, the “anti-inflammatory potentialities (IL8 production), in words” value (production of IL8 [1]) was “anti-inflammatory potentialities” and the inhibition at 20 pg/mL [2] was 20%. The inhibition at 0.0002 µg/mL [2] was 19%, the inhibition at 0.002 µg/mL [2] was 22% and the inhibition at 0.02 µg/mL [2] was 19%. The “effect on the synthesis of melanin, in words” value (B16-F10 line; 10 μg/mL) was “without any effect”, the inhibition at 30 µg/mL (B16-F10 line; read-out: inhibition of the amount of extra-cellular melanin) was 30% and the inhibition at 30 µg/mL (B16-F10 line; read-out: inhibition of the amount of intra-cellular melanin) was ~45%. It also gave a melting point of 153 °C and an EC50 (production of IL8 [3]) of 11 µg/mL.

For `NCCC/C=C(\F)C(=O)O` [compound 3, (Z)-6-amino-2-fluoro-hex-2-enoic acid], the “Inhibitory activity %” value (production of IL8 [1]) was “~”, the inhibition at 20 pg/mL [2] was 15% and the inhibition at 0.0002 µg/mL [2] was 11%. The inhibition at 0.002 µg/mL [2] was 5% and the inhibition at 0.02 µg/mL [2] was 1%.

In the case of `NCCCC/C=C(\F)C(=O)O` [compound 6, (Z)-7-amino-2-fluoro-hept-2-enoic acid], the inhibition at 3 µg/mL (production of IL8 [1]) is reported as < 0%, the inhibition at 20 pg/mL [2] is reported as 31% and the inhibition at 0.0002 µg/mL [2] is reported as 30%. For the same compound, the inhibition at 0.002 µg/mL [2] was 21%, the inhibition at 0.02 µg/mL [2] was 26% and the “increase of the amount of intracellular melanin” value (B16-F10 line; 3, 10 and 30 μg/mL) was “about 100%”.
